For 13 compounds, inhibition results are on record in patent US10106556B2, “Heterocyclic compound” (TAKEDA PHARMACEUTICAL COMPANY LIMITED, priority 2015, dated 2018).

The term inhibition denotes the drop in the measured response relative to a control, in per cent.

This experiment deals with T1, His-hMAGL (recombinant polyhistidine tagged human MAGL protein) (Homo sapiens, UniProt Q99685).
T1 construct: made in house; host or cells: E. coli BL21(DE3)
T1 sequence (Q99685 1-303): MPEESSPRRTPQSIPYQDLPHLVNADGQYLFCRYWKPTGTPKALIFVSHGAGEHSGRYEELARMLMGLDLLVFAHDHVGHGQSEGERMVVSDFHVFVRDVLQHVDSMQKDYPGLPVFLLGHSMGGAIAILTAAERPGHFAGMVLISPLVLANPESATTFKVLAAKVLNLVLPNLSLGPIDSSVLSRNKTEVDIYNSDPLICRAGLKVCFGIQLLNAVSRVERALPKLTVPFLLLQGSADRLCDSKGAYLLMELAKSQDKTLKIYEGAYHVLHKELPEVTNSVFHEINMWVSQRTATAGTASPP
As to the kind of experiment: Measurement of MAGL inhibitory activity (arachidonic acid production from 2-arachidonylglycerol, RapidFire-mass spectrometry). The format is biochemical. The note with it: MAGL inhibitory rate at 10 μM test compound; 60 min preincubation with His-hMAGL, 2-arachidonylglycerol substrate, 10 min reaction at room temperature. Put shortly: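 Recombinant His-tagged human MAGL converted 2-arachidonylglycerol to arachidonic acid. Reactions received acetonitrile with 3 μM arachidonic acid-d8 as internal standard, and product was quantified by RapidFire SPE (C4) with negative-mode SRM mass spectrometry. Percent inhibition was calculated against compound-free and enzyme-free controls.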
Consider `O=C1COc2cc(F)c(C(=O)N3CC(OCc4ccc5scnc5c4)C3)cc2N1` [Example 344, 6-((3-(1,3-benzothiazol-5-ylmethoxy)azetidin-1-yl)carbonyl)-7-fluoro-2H-1,4-benzoxazin-3(4H)-one], for which the inhibition at 10 µM worked out at 99%.
Then `O=C1COc2cc(F)c(C(=O)N3CC(OCc4ccc(C(F)(F)F)cc4F)C3)cc2N1` [Example 345, 7-fluoro-6-((3-((2-fluoro-4-(trifluoromethyl)benzyl)oxy)azetidin-1-yl)carbonyl)-2H-1,4-benzoxazin-3(4H)-one], with 101%; and `O=C1COc2cc(F)c(C(=O)N3CC(OCc4ccc5c(c4)CCCC5)C3)cc2N1` [Example 346, 7-fluoro-6-((3-(5,6,7,8-tetrahydronaphthalen-2-ylmethoxy)azetidin-1-yl)carbonyl)-2H-1,4-benzoxazin-3(4H)-one], with 101%; and `COc1ccc(COC2CN(C(=O)c3cc4c(cc3F)OCC(=O)N4)C2)c(Cl)c1` [Example 347, 6-((3-((2-chloro-4-methoxybenzyl)oxy)azetidin-1-yl)carbonyl)-7-fluoro-2H-1,4-benzoxazin-3(4H)-one], with 102%.
Then `COc1ccc(COC2CN(C(=O)c3cc4c(cc3F)OCC(=O)N4)C2)cc1F` [Example 348, 7-fluoro-6-((3-((3-fluoro-4-methoxybenzyl)oxy)azetidin-1-yl)carbonyl)-2H-1,4-benzoxazin-3(4H)-one], with 100%; and `O=C1COc2cc(F)c(C(=O)N3CC(OCc4ccc(Cl)cc4F)C3)cc2N1` [Example 349, 6-((3-((4-chloro-2-fluorobenzyl)oxy)azetidin-1-yl)carbonyl)-7-fluoro-2H-1,4-benzoxazin-3(4H)-one], with 100%; and `Cc1ccc(COC2CN(C(=O)c3cc4c(cc3F)OCC(=O)N4)C2)c(F)c1` [Example 350, 7-fluoro-6-((3-((2-fluoro-4-methylbenzyl)oxy)azetidin-1-yl)carbonyl)-2H-1,4-benzoxazin-3(4H)-one], with 101%.
In the case of `O=C1COc2cc(F)c(C(=O)N3CC(OCc4ccc(C(F)(F)F)c(F)c4)C3)cc2N1` [Example 351, 7-fluoro-6-((3-((3-fluoro-4-(trifluoromethyl)benzyl)oxy)azetidin-1-yl)carbonyl)-2H-1,4-benzoxazin-3(4H)-one], the inhibition at 10 µM came to 99%.
Turning to `O=C1COc2cc(F)c(C(=O)N3CC(OCc4ccc(C(F)F)cc4F)C3)cc2N1` [Example 352, 6-((3-((4-(difluoromethyl)-2-fluorobenzyl)oxy)azetidin-1-yl)carbonyl)-7-fluoro-2H-1,4-benzoxazin-3(4H)-one], the inhibition at 10 µM was found to be 101%.
The figure for `O=C1COc2cc(F)c(C(=O)N3CC(OCc4ccc(N5CC(F)C5)cc4Cl)C3)cc2N1` [Example 353, 6-((3-((2-chloro-4-(3-fluoroazetidin-1-yl)benzyl)oxy)azetidin-1-yl)carbonyl)-7-fluoro-2H-1,4-benzoxazin-3(4H)-one] is 100%; for `CC(OC1CN(C(=O)c2cc3c(cc2F)OCC(=O)N3)C1)c1ccc(F)cc1` (stereo not shown) [Example 354, 7-fluoro-6-((3-(1-(4-fluorophenyl)ethoxy)azetidin-1-yl)carbonyl)-2H-1,4-benzoxazin-3(4H)-one] it is 102%; for `O=C1COc2ccc(C(=O)N3CCC(C(F)(F)c4ccc(F)cc4)CC3)cc2N1` [Example 355, 6-((4-(difluoro(4-fluorophenyl)methyl)piperidin-1-yl)carbonyl)-2H-1,4-benzoxazin-3(4H)-one] it is 101%.
The figure for `O=C1COc2cc(F)c(C(=O)N3CC(CC(F)(F)c4ccc(F)cc4Cl)C3)cc2N1` [Example 356, 6-((3-(2-(2-chloro-4-fluorophenyl)-2,2-difluoroethyl)azetidin-1-yl)carbonyl)-7-fluoro-2H-1,4-benzoxazin-3(4H)-one] is 102%.
